{
  "source": "ChEMBL document CHEMBL1201862",
  "about": "“PubChem BioAssay data set” (2004)",
  "key": {"Aspartyl aminopeptidase": {"target": "Aspartyl aminopeptidase (Plasmodium falciparum 3D7, UniProt Q8I2J3)", "sequence (Q8I2J3 whole entry)": "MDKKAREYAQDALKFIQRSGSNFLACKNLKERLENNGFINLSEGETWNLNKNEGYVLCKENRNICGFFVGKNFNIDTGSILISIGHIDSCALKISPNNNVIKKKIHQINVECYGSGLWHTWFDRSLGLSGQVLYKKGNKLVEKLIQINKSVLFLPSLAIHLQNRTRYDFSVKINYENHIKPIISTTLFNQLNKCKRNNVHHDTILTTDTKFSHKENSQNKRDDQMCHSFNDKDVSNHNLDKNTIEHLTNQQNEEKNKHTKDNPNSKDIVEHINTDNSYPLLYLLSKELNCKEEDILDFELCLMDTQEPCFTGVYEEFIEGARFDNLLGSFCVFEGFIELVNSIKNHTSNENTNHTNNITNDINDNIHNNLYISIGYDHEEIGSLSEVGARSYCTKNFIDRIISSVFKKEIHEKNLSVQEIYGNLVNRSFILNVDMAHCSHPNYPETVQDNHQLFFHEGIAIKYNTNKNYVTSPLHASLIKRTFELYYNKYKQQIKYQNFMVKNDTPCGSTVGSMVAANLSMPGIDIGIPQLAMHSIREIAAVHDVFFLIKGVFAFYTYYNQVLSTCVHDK"}, "[1]": {"target": "Alkaline phosphatase, placental type (Homo sapiens, UniProt P05187)", "test": "human placental alkaline phosphatase inhibition – biochemical, luminescence, confirmation (AID 1512)", "assay_type": "functional"}, "Procathepsin L": {"target": "Procathepsin L (Homo sapiens, UniProt P07711)"}, "Streptococcus [2]": {"system": "Streptococcus", "test": "Luminescence Microorganism-Based Dose Response Follow up to Identify Compounds Cytotoxic to Streptococcus. [Related pubchem assays: 1677 (Project Summary), 1915, 1914, 1902 (Retest at Dose), 1900 (Counter Screen), 1662 (Primary HTS)]", "assay_type": "functional, organism-based"}, "Streptokinase A": {"target": "T1, Streptokinase A (Streptococcus pyogenes serotype M1, UniProt P10520)", "T1 sequence (P10520 whole entry)": "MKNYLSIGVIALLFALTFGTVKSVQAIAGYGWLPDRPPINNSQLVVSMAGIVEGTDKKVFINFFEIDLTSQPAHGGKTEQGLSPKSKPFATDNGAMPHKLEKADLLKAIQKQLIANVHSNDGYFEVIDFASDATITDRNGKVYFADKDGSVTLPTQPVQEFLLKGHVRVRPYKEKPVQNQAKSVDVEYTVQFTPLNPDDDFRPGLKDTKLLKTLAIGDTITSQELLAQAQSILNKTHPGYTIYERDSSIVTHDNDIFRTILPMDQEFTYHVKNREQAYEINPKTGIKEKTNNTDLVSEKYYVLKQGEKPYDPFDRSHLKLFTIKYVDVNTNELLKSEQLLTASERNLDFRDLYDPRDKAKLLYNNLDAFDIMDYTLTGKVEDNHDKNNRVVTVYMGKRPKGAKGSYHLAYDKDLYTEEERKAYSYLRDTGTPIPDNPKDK", "test": "viability-normalized secreted streptokinase activity reduction – plasminogen activation absorbance, OD405, dose response (AID 1914)", "assay_type": "functional, Streptococcus pyogenes M1 GAS"}, "[3]": {"system": "Streptococcus sp. 'group A'", "test": "Streptococcus pyogenes SK(-)GAS viability under kanamycin – luminescence, BacTiterGlo, confirmation, counter-screen for streptokinase expression inhibitor project, dose response (AID 1900)", "assay_type": "functional, organism-based"}, "Streptococcus [4]": {"system": "Streptococcus", "test": "GAS UMAA2166 growth inhibition – luminescence, BacTiterGlo, counter-screen for streptokinase expression inhibitor project, dose response (AID 1915);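 note: potency for reduction of bacterial viability or growth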", "assay_type": "functional, organism-based"}, "[5]": {"target": "G-protein coupled receptor 35 (Homo sapiens, UniProt Q9HC97)", "sequence (Q9HC97 whole entry)": "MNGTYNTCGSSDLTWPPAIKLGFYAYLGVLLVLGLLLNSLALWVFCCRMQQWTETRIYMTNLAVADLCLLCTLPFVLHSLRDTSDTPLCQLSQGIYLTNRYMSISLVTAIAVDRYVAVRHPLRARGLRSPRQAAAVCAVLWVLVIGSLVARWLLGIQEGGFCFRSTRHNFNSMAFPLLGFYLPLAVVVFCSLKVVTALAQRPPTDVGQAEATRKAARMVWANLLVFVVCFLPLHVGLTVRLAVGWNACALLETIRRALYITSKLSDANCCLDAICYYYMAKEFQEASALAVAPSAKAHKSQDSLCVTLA", "test": "inhibition of zaprinast-stimulated GPR35 beta-arrestin translocation – imaging, U2OS, beta-arrestin-GFP, zaprinast agonist, primary screen (AID 2058);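 note: antagonist potency meaning inhibition of agonist-induced arrestin redistribution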", "assay_type": "functional"}, "[6]": {"target": "T2, Short transient receptor potential channel 4 (Mus musculus, UniProt Q9QUQ5)", "T2 sequence (Q9QUQ5 whole entry)": "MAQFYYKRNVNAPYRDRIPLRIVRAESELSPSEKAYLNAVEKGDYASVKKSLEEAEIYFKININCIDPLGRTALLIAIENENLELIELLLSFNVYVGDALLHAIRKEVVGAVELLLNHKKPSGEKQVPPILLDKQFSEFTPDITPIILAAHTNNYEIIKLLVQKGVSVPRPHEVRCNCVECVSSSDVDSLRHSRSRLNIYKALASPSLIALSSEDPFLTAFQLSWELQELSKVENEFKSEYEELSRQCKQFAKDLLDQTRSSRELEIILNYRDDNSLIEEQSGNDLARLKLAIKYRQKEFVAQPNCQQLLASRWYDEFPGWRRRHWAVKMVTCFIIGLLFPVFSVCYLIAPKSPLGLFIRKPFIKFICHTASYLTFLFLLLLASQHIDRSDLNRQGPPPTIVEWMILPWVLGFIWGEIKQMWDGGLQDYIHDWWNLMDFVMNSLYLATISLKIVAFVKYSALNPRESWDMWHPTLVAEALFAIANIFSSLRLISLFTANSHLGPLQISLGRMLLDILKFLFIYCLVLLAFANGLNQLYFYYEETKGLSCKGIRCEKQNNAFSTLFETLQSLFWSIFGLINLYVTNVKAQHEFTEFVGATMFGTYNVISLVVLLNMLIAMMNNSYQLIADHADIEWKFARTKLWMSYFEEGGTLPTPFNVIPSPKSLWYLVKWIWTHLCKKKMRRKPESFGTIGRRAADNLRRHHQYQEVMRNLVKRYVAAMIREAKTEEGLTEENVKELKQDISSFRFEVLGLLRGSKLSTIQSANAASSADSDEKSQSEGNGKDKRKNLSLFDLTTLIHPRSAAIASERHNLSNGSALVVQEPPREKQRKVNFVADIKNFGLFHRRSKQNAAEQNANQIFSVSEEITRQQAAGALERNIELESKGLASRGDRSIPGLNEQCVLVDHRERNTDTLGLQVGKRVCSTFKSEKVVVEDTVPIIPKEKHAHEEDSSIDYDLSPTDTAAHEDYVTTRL", "test": "block of DAMGO-driven TRPC4 calcium entry – cell-based, HEK293 TRPC4/mu-opioid, Fluo-4 calcium, dose response (AID 434942);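 note: potency of inhibitors blocking the TRPC4 calcium response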", "assay_type": "functional"}, "Protein Rev": {"target": "Protein Rev (Human immunodeficiency virus type 1 group M subtype B (isolate WMJ22)(HIV-1), UniProt P05866)", "sequence (P05866 whole entry)": "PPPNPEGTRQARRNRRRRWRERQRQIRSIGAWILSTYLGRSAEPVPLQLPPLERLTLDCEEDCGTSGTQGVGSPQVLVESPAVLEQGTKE", "test": "inhibitors of Rev protein–RRE RNA complex – biochemical, protein-RNA interaction, dose response (AID 842)", "parameters": "species or system Human immunodeficiency virus 1"}, "Insulin-degrading enzyme": {"target": "T3, Insulin-degrading enzyme (Homo sapiens, UniProt P14735)", "T3 sequence (P14735 whole entry)": "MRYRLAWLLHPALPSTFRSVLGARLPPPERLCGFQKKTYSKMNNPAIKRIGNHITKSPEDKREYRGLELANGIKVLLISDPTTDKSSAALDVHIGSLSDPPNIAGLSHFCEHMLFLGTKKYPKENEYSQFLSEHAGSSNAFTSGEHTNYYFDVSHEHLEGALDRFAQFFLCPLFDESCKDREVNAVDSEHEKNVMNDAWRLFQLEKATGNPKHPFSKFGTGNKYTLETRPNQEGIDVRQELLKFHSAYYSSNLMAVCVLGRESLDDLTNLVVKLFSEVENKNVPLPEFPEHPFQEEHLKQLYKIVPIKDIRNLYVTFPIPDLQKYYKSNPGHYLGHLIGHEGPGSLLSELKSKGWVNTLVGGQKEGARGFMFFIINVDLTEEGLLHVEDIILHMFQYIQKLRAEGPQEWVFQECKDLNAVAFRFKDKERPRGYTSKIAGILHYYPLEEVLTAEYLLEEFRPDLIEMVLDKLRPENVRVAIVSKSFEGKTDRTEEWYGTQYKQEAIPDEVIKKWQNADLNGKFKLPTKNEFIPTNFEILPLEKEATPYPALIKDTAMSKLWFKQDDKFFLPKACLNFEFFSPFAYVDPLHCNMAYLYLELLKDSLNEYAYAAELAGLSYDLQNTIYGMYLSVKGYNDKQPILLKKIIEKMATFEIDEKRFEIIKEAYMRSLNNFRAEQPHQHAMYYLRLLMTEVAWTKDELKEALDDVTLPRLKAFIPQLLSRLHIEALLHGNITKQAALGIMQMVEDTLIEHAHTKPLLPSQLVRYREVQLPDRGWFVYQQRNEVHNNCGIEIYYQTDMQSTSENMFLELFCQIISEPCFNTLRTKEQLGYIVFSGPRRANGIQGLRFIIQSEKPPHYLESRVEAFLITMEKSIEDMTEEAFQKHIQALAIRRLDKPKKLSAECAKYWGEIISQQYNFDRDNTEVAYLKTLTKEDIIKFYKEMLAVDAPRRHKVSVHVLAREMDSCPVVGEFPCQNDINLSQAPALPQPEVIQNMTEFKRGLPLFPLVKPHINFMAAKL", "test": "Dose Response: Fluorescence polarization-based cell-based high throughput dose response assay for inhibitors of insulin-degrading enzyme (IDE). [Related pubchem assays: 434962 (Primary screen (IDE inhibitors in singlicate)), 449730 (Counterscreen (Cytotoxicity in triplicate)), 435028 (Confirmation (IDE inhibitors in triplicate)), 434984 (Summary …", "assay_type": "functional"}, "[7]": {"test": "Counterscreen for IDE inhibitors: Luminescence-based cell-based high throughput dose response assay to identify compounds that are cytotoxic to HEK cells. [Related pubchem assays: 434962 (Primary screen (IDE inhibitors in singlicate)), 449730 (Counterscreen (Cytotoxicity in triplicate)), 435028 (Confirmation (IDE inhibitors in triplicate)) …", "assay_type": "functional", "settings": "HEK293"}, "[8]": {"target": "Voltage-dependent T-type calcium channel subunit alpha-1H (Homo sapiens, UniProt O95180)", "assay_type": "functional"}, "[9]": {"target": "Melanin-concentrating hormone receptor 1 (Homo sapiens, UniProt Q99705)", "sequence (Q99705 whole entry)": "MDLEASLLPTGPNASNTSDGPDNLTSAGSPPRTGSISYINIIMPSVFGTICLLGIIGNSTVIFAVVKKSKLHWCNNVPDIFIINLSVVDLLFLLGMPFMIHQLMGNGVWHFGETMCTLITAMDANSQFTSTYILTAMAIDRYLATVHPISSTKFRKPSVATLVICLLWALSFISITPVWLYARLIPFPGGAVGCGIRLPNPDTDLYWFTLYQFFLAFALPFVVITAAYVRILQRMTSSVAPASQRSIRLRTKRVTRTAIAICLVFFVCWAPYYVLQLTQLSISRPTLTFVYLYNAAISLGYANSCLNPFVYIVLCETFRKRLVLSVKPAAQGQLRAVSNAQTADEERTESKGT", "test": "Fluorescence-based counterscreen for antagonists of the G-protein coupled receptor 7 (GPR7): cell-based high throughput dose response assay to identify antagonists of the melanin-concentrating hormone receptor 1 (MCHR1).", "assay_type": "functional"}, "[10]": {"target": "Muscarinic acetylcholine receptor M1 (Rattus norvegicus, UniProt P08482)", "sequence (P08482 whole entry)": "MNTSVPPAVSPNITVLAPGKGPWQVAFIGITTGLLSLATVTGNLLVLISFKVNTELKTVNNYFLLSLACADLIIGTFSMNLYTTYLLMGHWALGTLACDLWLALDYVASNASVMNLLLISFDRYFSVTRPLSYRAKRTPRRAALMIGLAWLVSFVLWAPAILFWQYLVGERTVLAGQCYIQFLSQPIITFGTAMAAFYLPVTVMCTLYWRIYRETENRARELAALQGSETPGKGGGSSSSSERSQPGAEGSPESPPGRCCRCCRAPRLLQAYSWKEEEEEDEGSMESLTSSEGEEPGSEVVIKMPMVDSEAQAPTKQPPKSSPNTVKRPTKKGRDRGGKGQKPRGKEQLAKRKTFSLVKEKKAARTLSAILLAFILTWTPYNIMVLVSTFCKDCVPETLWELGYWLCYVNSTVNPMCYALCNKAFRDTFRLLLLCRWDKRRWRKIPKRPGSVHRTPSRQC", "test": "Discovery of novel allosteric modulators of the M1 muscarinic receptor: Agonist NMS binding at M1. [Related pubchem assays: 626 ]"}, "[11]": {"target": "Muscarinic acetylcholine receptor M3 (Homo sapiens, UniProt P20309)", "sequence (P20309 whole entry)": "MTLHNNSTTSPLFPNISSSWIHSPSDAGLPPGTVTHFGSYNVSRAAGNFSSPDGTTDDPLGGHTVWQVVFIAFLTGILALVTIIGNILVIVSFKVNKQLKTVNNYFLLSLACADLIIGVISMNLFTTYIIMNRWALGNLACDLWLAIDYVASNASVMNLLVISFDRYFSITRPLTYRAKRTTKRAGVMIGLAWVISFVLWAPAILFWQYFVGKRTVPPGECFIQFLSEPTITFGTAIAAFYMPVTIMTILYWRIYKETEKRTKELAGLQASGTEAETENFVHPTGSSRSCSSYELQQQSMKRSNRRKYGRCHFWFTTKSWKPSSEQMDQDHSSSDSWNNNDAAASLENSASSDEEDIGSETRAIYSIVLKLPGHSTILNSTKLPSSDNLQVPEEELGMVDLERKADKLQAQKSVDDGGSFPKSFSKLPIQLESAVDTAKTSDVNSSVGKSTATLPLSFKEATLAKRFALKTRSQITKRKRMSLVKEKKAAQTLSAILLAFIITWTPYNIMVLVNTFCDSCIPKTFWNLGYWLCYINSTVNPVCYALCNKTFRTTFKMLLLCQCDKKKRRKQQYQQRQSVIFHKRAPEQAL", "test": "(§1) Discovery of novel allosteric modulators of the M1 muscarinic receptor: Agonist NMS competition at M3. [Related pubchem assays: 1488 (Discovery of novel allosteric modulators of the M1 muscarinic receptor: Agonist Confirmation Assay), 626 (Discovery of Novel Allosteric Modulators of the M1 Muscarinic Receptor: Agonist Primary Screen)]", "assay_type": "functional"}, "[12]": {"target": "Muscarinic acetylcholine receptor M4 (Rattus norvegicus, UniProt P08485)", "sequence (P08485 whole entry)": "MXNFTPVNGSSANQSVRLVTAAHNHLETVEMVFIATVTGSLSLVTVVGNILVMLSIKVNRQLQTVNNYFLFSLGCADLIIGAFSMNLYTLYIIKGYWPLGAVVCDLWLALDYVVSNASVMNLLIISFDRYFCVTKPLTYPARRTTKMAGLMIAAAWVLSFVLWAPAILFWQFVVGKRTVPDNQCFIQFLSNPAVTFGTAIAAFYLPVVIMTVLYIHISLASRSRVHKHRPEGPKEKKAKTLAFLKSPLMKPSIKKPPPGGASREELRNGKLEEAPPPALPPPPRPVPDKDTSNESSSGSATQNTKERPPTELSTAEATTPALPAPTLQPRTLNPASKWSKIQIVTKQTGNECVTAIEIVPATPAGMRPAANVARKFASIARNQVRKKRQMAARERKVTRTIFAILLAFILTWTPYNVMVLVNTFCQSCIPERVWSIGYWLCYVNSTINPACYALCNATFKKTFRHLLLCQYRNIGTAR", "test": "Discovery of novel allosteric modulators of the M1 muscarinic receptor: Agonist NMS competition at M4. [Related pubchem assays: 626, 1488, 1741 ]", "assay_type": "functional"}, "[13]": {"target": "Muscarinic acetylcholine receptor M2 (Homo sapiens, UniProt P08172)", "sequence (P08172 whole entry)": "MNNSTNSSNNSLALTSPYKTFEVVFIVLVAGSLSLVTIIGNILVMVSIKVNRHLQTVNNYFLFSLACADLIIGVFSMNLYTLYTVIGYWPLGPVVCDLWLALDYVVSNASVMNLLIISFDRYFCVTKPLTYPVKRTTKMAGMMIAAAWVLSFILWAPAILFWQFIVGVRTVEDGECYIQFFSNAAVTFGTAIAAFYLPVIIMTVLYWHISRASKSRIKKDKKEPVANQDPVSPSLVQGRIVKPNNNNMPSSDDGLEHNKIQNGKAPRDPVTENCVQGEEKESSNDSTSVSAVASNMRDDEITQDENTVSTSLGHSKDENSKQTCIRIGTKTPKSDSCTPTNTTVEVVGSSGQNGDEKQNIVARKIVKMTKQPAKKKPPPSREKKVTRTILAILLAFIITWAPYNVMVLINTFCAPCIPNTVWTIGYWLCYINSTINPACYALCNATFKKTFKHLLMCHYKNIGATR", "test": "Discovery of novel allosteric modulators of the M1 muscarinic receptor: Agonist NMS competition at M2. [Related pubchem assays: 626 (Discovery of Novel Allosteric Modulators of the M1 Muscarinic Receptor: Agonist Primary Screen), 1488 (Discovery of novel allosteric modulators of the M1 muscarinic receptor: Agonist Confirmation Assay)]", "assay_type": "functional"}, "[14]": {"target": "Muscarinic acetylcholine receptor M5 (Homo sapiens, UniProt P08912)", "sequence (P08912 whole entry)": "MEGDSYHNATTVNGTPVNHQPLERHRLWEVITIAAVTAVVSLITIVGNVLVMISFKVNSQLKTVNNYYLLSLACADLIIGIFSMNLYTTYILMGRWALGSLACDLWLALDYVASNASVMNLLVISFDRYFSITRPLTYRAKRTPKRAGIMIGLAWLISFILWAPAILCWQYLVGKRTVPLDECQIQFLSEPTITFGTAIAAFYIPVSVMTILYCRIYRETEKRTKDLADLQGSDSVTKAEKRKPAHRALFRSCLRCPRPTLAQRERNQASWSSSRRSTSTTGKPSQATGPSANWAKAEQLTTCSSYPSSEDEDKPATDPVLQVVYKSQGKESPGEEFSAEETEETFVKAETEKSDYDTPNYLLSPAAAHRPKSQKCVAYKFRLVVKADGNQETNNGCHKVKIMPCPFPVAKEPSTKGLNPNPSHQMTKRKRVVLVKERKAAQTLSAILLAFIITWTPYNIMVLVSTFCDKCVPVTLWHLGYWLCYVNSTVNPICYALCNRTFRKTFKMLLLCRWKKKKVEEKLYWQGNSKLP", "test": "as §1, with “M5.” for “M3.”", "assay_type": "functional"}, "[15]": {"test": "mRNA 3' processing disruption, beta-gal signal increase – luminescence, S. cerevisiae SKY197-pL101, dose response (AID 2525)", "assay_type": "functional, cell-based"}, "[16]": {"target": "Glyceraldehyde-3-phosphate dehydrogenase (Homo sapiens, UniProt P04406)", "sequence (P04406 whole entry)": "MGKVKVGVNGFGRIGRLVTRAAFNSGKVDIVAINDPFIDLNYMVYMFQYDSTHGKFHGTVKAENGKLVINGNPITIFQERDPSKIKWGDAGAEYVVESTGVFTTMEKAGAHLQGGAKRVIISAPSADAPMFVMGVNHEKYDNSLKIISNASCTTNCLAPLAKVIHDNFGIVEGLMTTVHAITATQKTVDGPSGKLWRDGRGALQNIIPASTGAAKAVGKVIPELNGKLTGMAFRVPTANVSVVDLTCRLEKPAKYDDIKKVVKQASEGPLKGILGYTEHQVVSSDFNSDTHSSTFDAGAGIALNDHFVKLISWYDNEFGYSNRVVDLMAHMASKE"}, "[17]": {"target": "Heat shock cognate 71 kDa protein (Homo sapiens, UniProt P11142)", "sequence (P11142 whole entry)": "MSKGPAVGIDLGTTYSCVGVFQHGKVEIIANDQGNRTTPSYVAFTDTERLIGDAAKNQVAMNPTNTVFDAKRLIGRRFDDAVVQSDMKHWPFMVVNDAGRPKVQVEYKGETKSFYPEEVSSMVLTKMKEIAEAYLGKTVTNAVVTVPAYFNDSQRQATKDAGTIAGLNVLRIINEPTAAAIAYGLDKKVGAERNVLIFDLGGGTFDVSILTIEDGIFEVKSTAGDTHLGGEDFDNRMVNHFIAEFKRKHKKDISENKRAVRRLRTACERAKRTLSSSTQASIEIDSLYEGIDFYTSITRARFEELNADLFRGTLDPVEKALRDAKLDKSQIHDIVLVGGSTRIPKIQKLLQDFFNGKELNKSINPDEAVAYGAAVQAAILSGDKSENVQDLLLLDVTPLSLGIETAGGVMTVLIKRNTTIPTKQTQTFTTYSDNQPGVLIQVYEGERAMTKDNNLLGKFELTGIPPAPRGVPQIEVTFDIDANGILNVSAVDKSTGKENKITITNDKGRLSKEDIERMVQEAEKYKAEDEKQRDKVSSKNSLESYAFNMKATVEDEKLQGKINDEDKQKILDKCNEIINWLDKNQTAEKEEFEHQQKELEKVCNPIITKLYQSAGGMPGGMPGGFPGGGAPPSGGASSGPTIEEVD", "test": "In Vitro Hsc70 Dose Response Fluorescence Polarization Assay. [Related pubchem assays: 1072 ]"}},
  "note": "The source made the active and inactive calls.",
  "data": [
    {"smiles": "O=C(NCc1cccnc1)NC1(C(F)(F)F)Oc2ccc(Cl)cc2O1", "note": "(configuration not stated)", "values": [
      {"measurement": "IC50", "setting": "Aspartyl aminopeptidase", "result": "1.58 µM (active)"},
      {"measurement": "IC50", "setting": "[1]", "result": "8.54 µM (active)"},
      {"measurement": "IC50", "setting": "Procathepsin L", "result": "> 59.6 µM (not active)"}
    ]},
    {"smiles": "COCc1cc(Sc2c(Cl)cccc2Cl)nc(-c2ccccc2)n1", "values": [
      {"measurement": "EC50", "setting": "Streptococcus [2]", "result": "> 500 µM (not active)"},
      {"measurement": "EC50", "setting": "Streptokinase A", "result": "9.31 µM (active)"},
      {"measurement": "EC50", "setting": "[3]", "result": "8.22 µM (active)"},
      {"measurement": "EC50", "setting": "Streptococcus [4]", "result": "> 150 µM (not active)"}
    ]},
    {"smiles": "COc1ccc2nc(C)cc(NCc3ccc(F)cc3)c2c1", "values": [
      {"measurement": "IC50", "setting": "[5]", "result": "2.6 µM (active)"},
      {"measurement": "EC50", "setting": "[6]", "result": "5.96 µM (active)"}
    ]},
    {"smiles": "CC1=NOC(=O)/C1=C/c1ccc(N(C)C)cc1", "values": [
      {"measurement": "IC50", "setting": "Protein Rev", "result": "2.86 µM (active)"}
    ]},
    {"smiles": "Cn1c2ccccc2c2cc(/C=C(\\NC(=O)c3ccccc3)C(=O)NCC(=O)O)ccc21", "values": [
      {"measurement": "IC50", "setting": "Insulin-degrading enzyme", "result": "42.5 µM (not active)"},
      {"measurement": "IC50", "setting": "[7]", "result": "> 55.7 µM (not active)"}
    ]},
    {"smiles": "C=CCOc1c(Br)cc(CNc2nccs2)cc1OC", "values": [
      {"measurement": "EC50", "setting": "[8]", "result": "6.12 µM (active)"}
    ]},
    {"smiles": "Cc1ccccc1CN1C[C@@H]2C[C@@H](c3c[nH]nc3-c3ccc(F)cc3)N3CCC[C@@]23C1=O", "values": [
      {"measurement": "IC50", "setting": "[9]", "result": "25.4 µM (not active)"}
    ]},
    {"smiles": "CCOC(=O)N1CCC(NCCNC(=O)c2ccccc2)CC1", "values": [
      {"measurement": "EC50", "setting": "[10]", "result": "36.5 µM (inconclusive)"},
      {"measurement": "EC50", "setting": "[11]", "result": "12.4 µM (inconclusive)"},
      {"measurement": "EC50", "setting": "[12]", "result": "21.4 µM (inconclusive)"},
      {"measurement": "EC50", "setting": "[13]", "result": "28 µM (inconclusive)"},
      {"measurement": "EC50", "setting": "[14]", "result": "64.6 µM (inconclusive)"}
    ]},
    {"smiles": "O=C(O)CN1C(=O)/C(=C\\c2ccc(N3CCCCC3)o2)SC1=S", "values": [
      {"measurement": "EC50", "setting": "[15]", "result": "12.4 µM (active)"}
    ]},
    {"smiles": "Nc1ncnc2c1ncn2[C@@H]1O[C@H](COP(=O)(O)OP(=O)(O)O)[C@@H](O)[C@H]1O", "note": "[ADENOSINE DIPHOSPHATE]", "values": [
      {"measurement": "IC50", "setting": "[16]", "result": "> 5 µM (inconclusive)"},
      {"measurement": "IC50", "setting": "[17]", "result": "0.28 µM (active)"}
    ]}
  ]
}
